The test system of experiment [1] is PAF-induced cutaneous vascular permeability. Nature of the experiment: In vivo assay: inhibition of PAF-induced increase of cutaneous vasopermeability in guinea pigs after oral dosing. As to conditions: guinea pig. The protocol:
The specific PAF-antagonistic activities are further established by in vivo assays following the protocol (modified procedure of Humphrey et al., Lab. Investigation, 46, 422 (1982)) described below:
Protocol for the Evaluation of the Oral Activity of
PAF Antagonists or the Inhibition of PAF-Induced
Increase of Vasopermeability by PAF-Antagonists
I. Animal species: 5 guinea pigs (400-500 g)
(4.) Ground and suspend a PAF antagonist of formula
(I) with intensive sonication in 3 ml of 0.5%
aqueous methylcellulose solution.
(5.) Administer orally to each of the animals T1,
T2, T3 and T4 an appropriate amount (in
terms of mg/kg of bodyweight) of the antagonist
solution from 4), except the control animal
(6.) Forty minutes after the oral administration,
(7.) After 20 minutes or when the anesthetics became
effective, inject intracardially to each animal
and inject intracutaneously, in duplicate 0.1
ml of a PAF solution in Tris-buffer or 0.1 ml
of the Tris-buffer itself (control) according
(9.) Wait for 30 minutes or until the blue color
(13.) In the meantime, extract a 100 μl sample of
(15.) Measure the absorbance of each supernatant from
Palo Alto, CA). Calculate the amount of Evans
blue in each skin sample in terms of the volume
(μl) of the exuded blood plasma according to
the following equation: […]
(16.) Draw a plasma exudation curve
(17.) Calculate the percent inhibition of PAF-induced
cutaneous vascular permeability from measuring
the area under the plasma exudation curve of
the control animal (AC) and that of an
animal treated orally with an antagonist
(AD), for example T1, according to the […]

The target of experiment [2] is T1, PAF specific receptor binding site on rabbit platelet plasma membranes (Oryctolagus cuniculus, UniProt G1TEI7).
T1 construct: from tissue; host or cells: rabbit platelets (plasma membrane suspension)
T1 sequence (G1TEI7 1-342): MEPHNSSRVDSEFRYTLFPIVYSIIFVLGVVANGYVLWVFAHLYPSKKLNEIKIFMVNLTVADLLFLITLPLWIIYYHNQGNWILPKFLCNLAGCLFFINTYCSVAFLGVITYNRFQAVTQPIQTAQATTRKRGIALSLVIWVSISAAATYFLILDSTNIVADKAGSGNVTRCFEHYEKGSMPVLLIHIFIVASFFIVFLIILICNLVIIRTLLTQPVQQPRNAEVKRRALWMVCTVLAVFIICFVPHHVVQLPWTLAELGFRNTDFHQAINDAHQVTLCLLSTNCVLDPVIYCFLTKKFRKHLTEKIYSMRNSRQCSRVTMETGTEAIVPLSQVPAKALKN
As to the kind of experiment: Inhibition of 3H-PAF binding to rabbit platelet plasma membranes. Particulars: read-out: % Inhibition of PAF Binding. The method, then:
In vitro, they inhibit PAF-induced functions in both the cellular and tissue levels by disturbing the PAF binding to its specific receptor site. The ability of a compound of formula (I) to inhibit the PAF binding to its specific receptor binding site on rabbit platelet plasma membranes was measured by an assay recently developed by us.
The inhibition of H^3 -PAF binding to the rabbit platelet plasma membrane by a PAF-antagonist of Formula (I) was determined by a method employing isotropic labeling and filtration techniques. Generally, a series of Tris-buffered solutions of the selected antagonist at predetermined concentrations were prepared. Each of these solutions contains 1 pmole of ^3 H-PAF, a known amount of the test antagonist, and a sufficient amount of the pH 7.5 Tris-buffer solution (10 mM Tris, 0.25% bovine serum albumin, and 150 mM NaCl per ml water) to make the final volume of 1 ml. After adding into a set of test tubes each with 100 μg of the platelet plasma membrane suspension (S. B. Hwang, et al., Biochemistry, 22, 4756 (1983)) and one of the Tris-buffer solutions described above, the resulting mixture in each test tube was incubated at 0° C. for about one hour or until the reaction was complete. Two control samples, one of which (C1) contains all the ingredients described above except the antagonist and the other (C2) contains C1 plus a 1000-fold excess of unlabeled PAF, were also prepared and incubated simultaneously with the test samples. After the incubation was completed, the contents of each test tube were filtered under vacuo through a Whatman GF/C fiberglass filter and the residue washed rapidly several times with a total of 20 ml cold (0°-5° C.) Tris-buffer solution. Each washed residue was then suspended in 10 ml scintillation solution (Aquasol 2, New England Nuclear, Connecticut) and the radioactivity was counted in a Packard Tri-Carb 460CD Liquid Scintillation System. Defining the counts from a test sample as "Total binding with antagonist"; the counts from the control sample C1, as "Total binding C1 "; and the counts from the control sample C2 as "non-specific binding C2 ", the percent inhibition of each test antagonist can be determined by the following equation: [formula]

Setting [3] is: Table 1, E (trans), dose 0.1 μM.
[4] abbreviates: Table 1, E (trans), dose 0.5 μM.

A word on the inhibition: it is the percentage by which the read-out fell short of the control.

Like-named read-outs stand apart in the source and are kept apart here.

Turning to `COCCC1=C(C)/C(=C\c2ccc(S(N)(=O)=O)cc2)c2ccc(OC)cc21` [E CH2CH2OCH3 / SO2NH2 / OCH3, E 1-(4-aminosulfonylphenyl)methylene-5-methoxy-2-methyl-1H-3-indenyl-(2-methoxy)ethane], the “% In Vivo Inhibition of PAF Receptor” value in experiment [1] (10 mg/kg) is listed as 28%. The “% In Vivo Inhibition of PAF Receptor” value in experiment [1] (20 mg/kg) was 60%. Moreover, the “% In Vivo Inhibition of PAF Receptor” value in experiment [1] (30 mg/kg) was determined as 67%. In experiment [2], the inhibition at 0.05 µM worked out at 20%, the inhibition at 0.1 µM was 40%, the inhibition at 0.25 µM was 58% and the inhibition at 0.5 µM came to 76%. In experiment [2], the inhibition at 1 µM amounted to 80%, the inhibition at 2.5 µM was determined as 100% and the inhibition at 5 µM was found to be 100%.
For `COc1ccc2c(c1)C(CCS(C)(=O)=O)=C(C)/C2=C\c1ccc(S(N)(=O)=O)cc1` [E CH2CH2SO2CH3 / SO2NH2 / OCH3, E 1-(4-aminosulfonylphenyl)methylene-5-methoxy-2-methyl-1H-3-indenyl-(2-methylsulfonyl)ethane], the “% In Vivo Inhibition of PAF Receptor” value in experiment [1] (10 mg/kg) is given as 9%; in experiment [1] (20 mg/kg) it was 45%. The inhibition at 0.1 µM in experiment [2] (setting [3]) was 35%. Moreover, the inhibition at 0.5 µM in experiment [2] (setting [4]) turned out to be 61%. Moreover, in experiment [2] (Table 1, E (trans), dose 1 μM), the inhibition at 1 µM amounted to 81%. In addition, the inhibition at 5 µM in experiment [2] (Table 1, E (trans), dose 5 μM) came out at 100%.
Take `COc1ccc2c(c1)C(CCn1ccnc1)=C(C)/C2=C\c1ccc(S(N)(=O)=O)cc1` [E drawing 22 / SO2NH2 / OCH3]: the “% In Vivo Inhibition of PAF Receptor” value was 52% in experiment [1] (45 mg/kg) and 59% in experiment [1] (50 mg/kg).
Consider `COC(=O)CC1=C(C)/C(=C\c2ccc(S(N)(=O)=O)cc2)c2ccc(OC)cc21` [E CH2COOCH3 / SO2NH2 / OCH3, E methyl 1-(4-aminosulfonylphenyl)methylene-5-methoxy-2-methyl-1H-3-indenylacetate], for which, in experiment [1] (50 mg/kg), the “% In Vivo Inhibition of PAF Receptor” value worked out at 0%. In experiment [2] (setting [3]), the inhibition at 0.1 µM is 35%. The inhibition at 0.5 µM in experiment [2] (setting [4]) worked out at 70%. Moreover, the inhibition at 1 µM in experiment [2] (Table 1, E (trans), dose 1 μM) stood at 84%. Besides, the inhibition at 5 µM in experiment [2] (Table 1, E (trans), dose 5 μM) was 100%.
Consider `COc1ccc2c(c1)C(CCSC)=C(C)/C2=C\c1ccc(S(N)(=O)=O)cc1` [E CH2CH2SCH3 / SO2NH2 / OCH3, E 1-(4-aminosulfonylphenyl)methylene-5-methoxy-2-methyl-1H-3-indenyl-(2-methylthio)ethane], for which the figures for the “% In Vivo Inhibition of PAF Receptor” value in experiment [1] (10 mg/kg) and in experiment [1] (20 mg/kg) were 30% and 46%, respectively. For the same compound, the inhibition at 0.1 µM in experiment [2] (setting [3]) was found to be 34%. Moreover, in experiment [2] (setting [4]), the inhibition at 0.5 µM worked out at 78%. For the same compound, the inhibition at 1 µM in experiment [2] (Table 1, E (trans), dose 1 μM) amounted to 100%.

The record behind these values is patent US4656190A, “Indene derivatives and their use as PAF-antagonists” (Merck & Co., Inc., priority 1983, dated 1987).
